From PubChem BioAssay AID1549 (Sanford-Burnham Center for Chemical Genomics, 2009)
Activity calls are given as the source filed them. How the calls were made is not given here.

Target: Influenza A virus M2 proton channel (A/TW/4845/1999 H1N1)
Test: M2 proton channel binding, NMR based, influenza A virus H1N1 strain (AID 1549)
Conditions: NMR binding screen, M2 protein

Cc1c(N=Cc2ccco2)c(=O)n(-c2ccccc2)n1C
Kd: > 4 mM (inactive)

Oc1cccc(N2CCOCC2)c1
Kd: > 4 mM (inactive)

CC(=O)Nn1c(=O)[nH]c2ccccc2c1=O
Kd: > 4 mM (inactive)

CCC(=O)Oc1ccc(N2C(=O)CCC2=O)cc1
Kd: > 4 mM (inactive)

CC(C)(OC(=O)c1ccccc1)[C@@H]1Cc2cc3ccc(=O)oc3cc2O1
Kd: > 4 mM (inactive)

O=C(O)c1ccc(CSc2ncn[nH]2)cc1
Kd: > 4 mM (inactive)

COc1cc(C(=S)N2CCOCC2)ccc1O
Kd: > 4 mM (inactive)

Cc1cccc(N2C(=O)CC(=O)NC2=O)c1
Kd: > 4 mM (inactive)

O=C(NC1CC1)c1ccccc1[N+](=O)[O-]
Kd: > 4 mM (inactive)

NC(=O)c1ccc(NC(=O)c2ccco2)cc1
Kd: > 4 mM (inactive)

COc1c(O)cccc1O
Kd: > 4 mM (inactive)

Cc1cc(C(=O)NCc2ccco2)cs1
Kd: > 4 mM (inactive)

CC(=O)Nc1c(C)n(C)n(-c2ccccc2)c1=O
Kd: > 4 mM (inactive)

COC(=O)c1cncc(C(=O)OC)c1
Kd: > 4 mM (inactive)

Cc1cc2c(nn1)CCc1nonc1-2
Kd: > 4 mM (inactive)

Cc1nc(N2CCOCC2)[nH]c(=O)c1C
Kd: > 4 mM (inactive)

Cc1cc(C(=O)N2CCCCCC2)cs1
Kd: > 4 mM (inactive)

Cc1ccccc1NC(=O)c1ocnc1C
Kd: > 4 mM (inactive)

COc1ccc(C(=O)CC(=O)O)c2c1C=CC(C)(C)O2
Kd: > 4 mM (inactive)

O=S1(=O)C=C(Nc2ccccc2)CC1
Kd: > 4 mM (inactive)

CNC(=O)C1CC(=O)N(c2ccc(O)cc2)C1 (stereo unspecified)
Kd: > 4 mM (inactive)

Nc1nncn1C(=O)c1ccccc1Cl
Kd: > 4 mM (inactive)

Cc1cc(=O)c2c(O)cc(O)c(C)c2o1
Kd: > 4 mM (inactive)

CC(C)c1c(O)ccc2c1CCC1[C@@](C)(CO)CCC[C@]21C (stereo partly specified)
Kd: > 4 mM (inactive)

NC(=O)c1ccc(N=Cc2ccc[nH]2)cc1
Kd: > 4 mM (inactive)

COCc1cc(=O)oc2cc(N)ccc12
Kd: > 4 mM (inactive)

CC(C)(O)[C@@H]1Cc2cc3ccc(=O)oc3cc2O1
Kd: > 4 mM (inactive)

O=C1C2CCCCC2C(=O)N1Cc1cccnc1 (stereo unspecified)
Kd: > 4 mM (inactive)

Cc1cccc(NC(=O)c2ccccc2C(=O)O)c1
Kd: > 4 mM (inactive)

CC1(C(=O)O)CC2C=CC1C2 (stereo unspecified)
Kd: > 4 mM (inactive)

CCn1cnc2cc([N+](=O)[O-])ccc2c1=O
Kd: > 4 mM (inactive)

NCc1ccc(-c2cccs2)s1
Kd: > 4 mM (inactive)

CCC(C)C(=O)O[C@H]1[C@H](O)C2C(CN3CC(C)CCC3[C@@]2(C)O)C2C[C@]34O[C@]5(O)C(OC(=O)C(C)(O)CC)CC[C@@]3(C)C5C(OC(C)=O)[C@@H](OC(C)=O)C4[C@@]21O (stereo partly specified)
Kd: > 4 mM (inactive)

O=c1oc2ccccc2cc1O
Kd: > 4 mM (inactive)

C=C(C)C1(O)OC(=O)C=C1OC (stereo unspecified)
Kd: > 4 mM (inactive)

NC(=O)CSCc1ccc(Br)cc1
Kd: > 4 mM (inactive)

O=C1NC(=O)C2C3C=CC(O3)C12 (stereo unspecified)
Kd: > 4 mM (inactive)

NC(=S)NC(=O)CN1C(=O)c2ccccc2C1=O
Kd: > 4 mM (inactive)

CC(=O)NCS(=O)(=O)c1ccc(C)cc1
Kd: > 4 mM (inactive)

O=C(Nc1c[nH]c(=O)[nH]c1=O)c1ccccc1F
Kd: > 4 mM (inactive)

O=C(CN1C(=O)CCC1=O)c1ccccc1
Kd: > 4 mM (inactive)

Cc1cc(C(F)(F)F)n2nc(C(=O)O)c(Cl)c2n1
Kd: > 4 mM (inactive)

O=C(Nc1nnc(-c2cccnc2)o1)c1ccccc1F
Kd: > 4 mM (inactive)

Cc1cc(O)cc(=O)n1CCCC(=O)O
Kd: > 4 mM (inactive)

Cn1nc(C(=O)N2CCCC2)c2ccccc2c1=O
Kd: > 4 mM (inactive)

COc1ccc2c(c1)[nH]c1c(C)nccc12
Kd: > 4 mM (inactive)

O=C(O)CC1C(=O)NCCN1Cc1ccccc1 (stereo unspecified)
Kd: > 4 mM (inactive)

N#Cc1cnn2c(C(F)(F)F)cc(C(F)(F)F)nc12
Kd: > 4 mM (inactive)

CC(C)(C)P(=O)(O)c1ccccc1
Kd: > 4 mM (inactive)

c1cncc(-c2nnc(-c3cccnc3)nn2)c1
Kd: > 4 mM (inactive)

c1ccc2[nH]c(CCn3cncn3)nc2c1
Kd: > 4 mM (inactive)

Cc1occc1C(=O)NCc1ccccn1
Kd: > 4 mM (inactive)

Nc1c(S(=O)(=O)c2ccccc2)csc1C(=O)O
Kd: > 4 mM (inactive)

COc1ccc([C@H]2Oc3c(I)c(OC)cc(OC)c3C[C@@H]2O)cc1OC
Kd: > 4 mM (inactive)

Cc1nnc(NC(=O)C(C)Sc2nncn2C)s1 (stereo unspecified)
Kd: > 4 mM (inactive)

N#Cc1cnn(Cc2ccc(Cl)cc2)c1N
Kd: > 4 mM (inactive)

CNC(=O)c1cc2cccc(OC)c2oc1=O
Kd: > 4 mM (inactive)

Nc1ccc(Oc2ccccc2)nc1
Kd: > 4 mM (inactive)

NC(=O)CNC(=O)c1ccccc1
Kd: > 4 mM (inactive)

Cc1nnc2n(c1=O)N=C(c1ccccc1)CS2
Kd: > 4 mM (inactive)

S=c1nc(Cc2ccccc2)[nH][nH]1
Kd: > 4 mM (inactive)
